Where “and” joins values, the source holds several entries; their conditions need not be identical. Equal values may be shown once. Entries after “also recorded” stand apart in the source; their conditions may differ.

Type in all cases: in vivo
Experiment [1] has as its system rat model of breast hyperplasia. The experiment in a line: Histopathological evaluation (H&E) of mammary glands in rat model of breast hyperplasia. On the set-up: key to Histopathological Examination Score of mammary gland: Absence of a lesion was scored as 0; 1: very slight; 2: mild; 3: moderate; 4: severe. Particulars: after 30 days of administration; for Breast hyperplasia compared with the model group: H&E pathology, result in words; for Histopathological Examination Score of mammary gland: individual animals No. 1-8, H&E staining. An excerpt: (§1) Study Design: Thirty-two female SD rats, aged 7-8 weeks and weighing 200-250 g, were used. The rats were randomly divided into four groups: a normal control group, a model group, a tezacaftor treatment group (hereinafter referred to as the “treatment group”), and a tamoxifen treatment group (hereinafter referred to as the “positive control group”).
(§2) Before administration of the test drugs, breast hyperplasia was induced in the rats of the model group, the treatment group, and the positive control group. Specifically, estradiol benzoate injection was intramuscularly administered to the inner thigh of each rat at a dose of 0.5 mg/kg/day for 25 consecutive days. Starting on day 26, progesterone injection was intramuscularly administered to the inner thigh at a dose of 5 mg/kg/day for 5 consecutive days. The total modeling period was 30 days.
(§3) Normal control group: Normal saline in an equal volume was intramuscularly administered to the inner side of the hind limb of each rat once daily for 30 consecutive days, with the left and right hind limbs injected alternately. Beginning on day 31, normal saline was administered by gavage for 30 days.
(§4) Model group: Beginning on day 31, the vehicle was administered by gavage for 30 consecutive days. Samples were collected 0.5 hour after the last administration.
(§5) Treatment group: Beginning on day 31, tezacaftor was administered by gavage at a dose of 40 mg/kg/day for 30 consecutive days. Samples were collected 0.5 hour after the last administration.
(§6) Positive control group: Beginning on day 31, tamoxifen was administered by gavage at a dose of 4 mg/kg/day for 30 consecutive days. Samples were collected 0.5 hour after the last administration.
(§7) Evaluation indices: (1) nipple diameter and height; (2) ovarian index and uterine index; (3) changes in serum E2 and PROG levels; and (4) the number of mammary lobular acini, the acinar lumen diameter, and the duct diameter in rats.
In the study of Embodiment 1, after 30 days of administration, mammary gland tissues from rats in each group were collected, dehydrated, embedded, and sectioned. The sections were subjected to H&E staining and pathological analysis.

For experiment [2] the test system is unchanged. Description: Nipple diameter and height in rat model of breast hyperplasia. The note with it: for Nipple Height / Nipple Diameter: female SD rats, gavage, tezacaftor 40 mg/kg/day, tamoxifen 4 mg/kg/day; for Nipple Diameter: in mm (unit assumed); for Change in nipple diameter compared with the model group / Change in nipple height compared with the model group: after 30 days of administration, result in words.
From the text: as §1, §2, §3, §4, §5, §6
Evaluation indices: (1) nipple diameter and height; (2) ovarian index and uterine index; (3) changes in serum E2 and PROG levels; and (4) the number of mammary lobular acini, the acinar lumen diameter, and the duct diameter in rats. […]

Experiment [3] shares this test system. The experiment in a line: Serum E2 and PROG levels in rat model of breast hyperplasia. Particulars: after 30 days of administration; assay kit; result in words.
From the text: as §1, §2, §3, §4, §5, §6, §7
In the study of Embodiment 1, after 30 days of administration, serum E2 and PROG levels in rats of each group were measured using assay kits.

Experiment [4] has the same test system. Description: Ovarian index and uterine index in rat model of breast hyperplasia. Particulars: after 30 days of administration; for Ovarian index (ovary weight/body weight) / Uterine index (uterine weight/body weight): gavage, tezacaftor 40 mg/kg/day, tamoxifen 4 mg/kg/day; for Change in ovarian index compared with the model group / Change in uterine index compared with the model group: result in words.
From the text: as §1, §2, §3, §4, §5, §6, §7
In the study of Embodiment 1, after 30 days of administration, the uterus weight, ovary weight, and body weight of the rats were measured. The uterine index was calculated as uterine weight/body weight, and the ovarian index was calculated as ovary weight/body weight. A comparison of the ovarian index and uterine index among the different groups is shown in FIG. 2, and the corresponding data are presented in Table 3.

Where [5] appears, read: Day 0 of treatment (baseline after modeling).

In the case of `CC/C(=C(\c1ccccc1)c1ccc(OCCN(C)C)cc1)c1ccccc1` [tamoxifen], in experiment [1], the “Breast hyperplasia compared with the model group” value is “alleviated”; the “Histopathological Examination Score of mammary gland” value is 0 and 1 (4×) and 2 (3×). For the same compound, in experiment [2] (setting [5]), the “Nipple Height” value is listed as 1.94 ± 0.16 mm and the “Nipple Diameter” value is 1.63 ± 0.12. Besides, in experiment [2] (Day 15 of treatment), the “Nipple Height” value is 1.70 ± 0.17 mm and the “Nipple Diameter” value came out at 1.28 ± 0.14. In experiment [2] (Day 30 of treatment), the “Nipple Height” value is 1.56 ± 0.12 mm and the “Nipple Diameter” value worked out at 1.11 ± 0.10. Moreover, in experiment [2], the “Change in nipple diameter compared with the model group” value is on record as “decreases” and the “Change in nipple height compared with the model group” value is on record as “decreases”. Besides, in experiment [3], the “Serum E2 level compared with the model group” value was “significantly decreased” and the “Serum PROG level compared with the model group” value is reported as “significantly increased”. Further, in experiment [4], the “Ovarian index (ovary weight/body weight)” value is on record as 0.145 ± 0.052%, the “Uterine index (uterine weight/body weight)” value came out at 0.050 ± 0.015 %, the “Change in ovarian index compared with the model group” value is reported as “decreases” and the “Change in uterine index compared with the model group” value was “decreases”.

Consider `CC(C)(CO)c1cc2cc(NC(=O)C3(c4ccc5c(c4)OC(F)(F)O5)CC3)c(F)cc2n1C[C@@H](O)CO` [tezacaftor], for which, in experiment [1], the “Breast hyperplasia compared with the model group” value is “alleviated; also recorded: alleviating breast hyperplasia”; the “Histopathological Examination Score of mammary gland” value is 1 (4×) and 2 (4×). In experiment [2] (setting [5]), the “Nipple Height” value worked out at 2.03 ± 0.12 mm and the “Nipple Diameter” value came to 1.63 ± 0.14. For the same compound, in experiment [2] (Day 15 of treatment), the “Nipple Height” value is 1.73 ± 0.21 mm and the “Nipple Diameter” value is recorded as 1.24 ± 0.13. In addition, in experiment [2] (Day 30 of treatment), the “Nipple Height” value turned out to be 1.61 ± 0.13 mm and the “Nipple Diameter” value turned out to be 1.12 ± 0.08. Moreover, in experiment [2], the “Change in nipple diameter compared with the model group” value is “significantly reduced; also recorded: decreases” and the “Change in nipple height compared with the model group” value was “significantly reduced; also recorded: decreases”. In experiment [3], the “Serum E2 level compared with the model group” value is “significantly decreased; also recorded: significantly improved” and the “Serum PROG level compared with the model group” value was “significantly increased; also recorded: significantly improved”. Further, in experiment [4], the “Ovarian index (ovary weight/body weight)” value was found to be 0.186 ± 0.088%, the “Uterine index (uterine weight/body weight)” value came out at 0.055 ± 0.012 %, the “Change in ovarian index compared with the model group” value was “decreases” and the “Change in uterine index compared with the model group” value is on record as “significantly reduced; also recorded: decreases”.

For the origin of these results see patent US20260216131A1, “METHODS OF TREATING BREAST HYPERPLASIA USING TEZACAFTOR” (Jiangsu Bioscene Pharmaceutical Co., Ltd., priority 2023, published 2026).
